Values of other authors, collected in patent publication US4542021A, “Antitumor compositions for non-injection administration” (Yamasa Shoyu Kabushiki Kaisha, priority 1978, dated 1985).

Settings: in combination with a cytidinedeaminase inhibitor such as tetrahydrouridine; cited from earlier work

Nc1ccn([C@@H]2O[C@H](CO)[C@@H](O)[C@@H]2O)c(=O)n1 [ara-C, 1-β-D-arabinofuranosyl cytosine]
effectiveness of oral administration: effective in combination with a cytidinedeaminase inhibitor such as tetrahydrouridine
